Measurements: patent US20180289009A1 (Synexis LLC, priority 2015, published 2018)
Several values for one entry are separate records, joined by “and”; a condition that tells them apart may be missing. Equal values may be shown once. Read-outs that look alike come from different tables or passages of the source.

Assays:
[1] = test system: mold spoilage on fresh strawberries; conditions: DHP gas 0.1-0.4 ppm; 5 days; 73-78° F.; humidity 40-65%
Protocol: Experiments are conducted in a 1584 cubic foot test room. The temperature of test room is maintained between 73° F. and 78° F., and the humidity of the ambient air is between 40% and 65%. […] After the 5-day incubation period, the strawberries are evaluated for the presence of mold spoilage.

H1N1 virus = conditions: DHP gas 0.6 ppm, 1.12 × 10^6 per inch^2
MS2 bacteriophage = conditions: DHP gas 0.6 ppm; 1.25 × 10^3 per inch^2
Feline calicivirus = conditions: DHP gas 0.6 ppm; ~1 × 10^8 per inch^2
Streptococcus pyogenes = conditions: DHP gas 0.6 ppm; 5 × 10^4 per inch^2
C. difficile (spores) = conditions: DHP gas 0.5-1.0 ppm, 3.78 × 10^6 per inch^2
[2] = test system: Aspergillus Niger (vegetative); conditions: vegetative form; DHP gas 0.3 ppm; 2.2 × 10^4 per inch^2
Enterococcus faecalis = conditions: DHP gas 0.5-1.0 ppm
[3] = test system: Geobacillus stearothermophilus spores
[4] = Log2 spore strip, 72 hours exposure to DHP gas at about 0.3 ppm
[5] = Log 2 spore strip, 144 hours exposure to DHP gas at about 0.3 ppm
[6] = Log 2 spore strip, 216 hours exposure to DHP gas at about 0.3 ppm
[7] = Log2 spore strip, 288 hours exposure to DHP gas at about 0.3 ppm
[8] = Log3 spore strip, 40 hours exposure to DHP gas at about 0.3 ppm
[9] = Log3 spore strip, 47.75 hours exposure to DHP gas at about 0.3 ppm
[10] = Log3 spore strip, 60.2 hours exposure to DHP gas at about 0.3 ppm
[11] = Log3 spore strip, 67.5 hours exposure to DHP gas at about 0.3 ppm
[12] = Log3 spore strip, 100 hours exposure to DHP gas at about 0.3 ppm
[13] = Log 3 spore strip, 144 hours exposure to DHP gas at about 0.3 ppm
[14] = Log 3 spore strip, 216 hours exposure to DHP gas at about 0.3 ppm
[15] = Log4 spore strip, 121.4 hours exposure to DHP gas at about 0.3 ppm
[16] = Log4 spore strip, 192 hours exposure to DHP gas at about 0.3 ppm
[17] = Log 4 spore strip, 216 hours exposure to DHP gas at about 0.3 ppm
[18] = Log4 spore strip, 223.5 hours exposure to DHP gas at about 0.3 ppm
[19] = Log4 spore strip, 288 hours exposure to DHP gas at about 0.3 ppm

For `OO` [DHP gas, hydrogen peroxide], the “Mold spoilage after 5-day incubation” value [1] was “no signs of mold spoilage”, the “Time to 90% reduction” value (H1N1 virus) was “less than 30 minutes” and the “Time to 90% reduction” value (H1N1 virus; listed as DHP Gas) was 22.9 min. The “Time to 90% reduction” value (MS2 bacteriophage) was under 4 h, the “Time to 90% reduction” value (Feline calicivirus) was under 2 h and the “Time to 90% reduction” value (Streptococcus pyogenes) was under 4 h. The “Time to 90% reduction” value (MRSA; soil load not stated) was “under 5 hours”, the “Time to 90% reduction” value (MRSA; with soil load, DHP gas 0.6 ppm, 0.5 × 10^5 per inch^2) was 4.6 h and the “Time to 90% reduction” value (MRSA; without soil load, DHP gas 0.6 ppm, 1 × 10^5 per inch^2) was 2.6 h. For the same compound, the “Reduction at 24 hours” value (C. difficile (spores)) was 70.4% at 24, the “Time to 90% reduction” value [2] was 7 h and the “Time to 90% reduction” value (Enterococcus faecalis) was under 2 h. For the same compound, the “Biological Change” value [3, 4] was “turbidity”, the “Color Change within 24 hour incubation” value [3, 4] was “light yellow” and the “Time of Change” value [3, 4] was 15 h. For the same compound, the “Color Change within 24 hour incubation” value [3, 5] was “very dark orange”, the “Time of Change” value [3, 5] was 22 h and the “Color Change within 24 hour incubation” value ([3]; Log 2 spore strip, 166.5 hours exposure to DHP gas at about 0.3 ppm) was “may have changed”. For the same compound, the “Biological Change” value [3, 6] was “no turbidity”, the “Color Change within 24 hour incubation” value [3, 6] was “very dark orange” and the “Time of Change” value [3, 6] was 22 h. The “Biological Change” value [3, 7] was “no turbidity”, the “Color Change within 24 hour incubation” value [3, 7] was “very light orange” and the “Time of Change” value [3, 7] was 17 h. For the same compound, the “Biological Change” value [3, 8] was “Heavy turbidity”, the “Color Change within 24 hour incubation” value [3, 8] was “+ Light orange” and the “Color Change within 24 hour incubation” value ([3]; Log3 spore strip, 42 hours exposure to DHP gas at about 0.3 ppm) was “+”. For the same compound, the “Color Change within 24 hour incubation” value ([3]; Log3 spore strip, 45.5 hours exposure to DHP gas at about 0.3 ppm) was “+”, the “Biological Change” value [3, 9] was “Less turbidity” and the “Color Change within 24 hour incubation” value [3, 9] was “+ Dark orange”. For the same compound, the “Biological Change” value [3, 10] was “Heavy turbidity”, the “Color Change within 24 hour incubation” value [3, 10] was “+” and the “Color Change within 24 hour incubation” value ([3]; Log3 spore strip, 64.2 hours exposure to DHP gas at about 0.3 ppm) was “+”. For the same compound, the “Color Change within 24 hour incubation” value ([3]; Log3 spore strip, 64.5 hours exposure to DHP gas at about 0.3 ppm) was “+”, the “Biological Change” value [3, 11] was “Almost no turbidity” and the “Color Change within 24 hour incubation” value [3, 11] was “+”. The “Color Change within 24 hour incubation” value ([3]; Log3 spore strip, 70 hours exposure to DHP gas at about 0.3 ppm) was “+”, the “Color Change within 24 hour incubation” value ([3]; Log3 spore strip, 85.1 hours exposure to DHP gas at about 0.3 ppm) was “+” and the “Color Change within 24 hour incubation” value ([3]; Log3 spore strip, 89 hours exposure to DHP gas at about 0.3 ppm) was “+”. For the same compound, the “Color Change within 24 hour incubation” value [3, 12] was “+”, the “Time of Change” value [3, 12] was 16 h and 22 to 24 h and the “Biological Change” value [3, 13] was “no turbidity”. The “Color Change within 24 hour incubation” value [3, 13] was “very light orange”, the “Time of Change” value [3, 13] was 16.5 h and the “Color Change within 24 hour incubation” value ([3]; Log 3 spore strip, 166.5 hours exposure to DHP gas at about 0.3 ppm) was “−”. For the same compound, the “Biological Change” value [3, 14] was “no turbidity”, the “Color Change within 24 hour incubation” value [3, 14] was “very dark orange” and the “Time of Change” value [3, 14] was 22 h. For the same compound, the “Biological Change” value [3, 15] was “almost no turbidity”, the “Color Change within 24 hour incubation” value [3, 15] was “−” and the “Time of Change” value [3, 15] was 8 to 15 h and 15 h. The “Time of Change” value ([3]; Log4 spore strip, 144 hours exposure to DHP gas at about 0.3 ppm) was 17 h and 16.5 h, the “Color Change within 24 hour incubation” value ([3]; Log 4 spore strip, 166.5 hours exposure to DHP gas at about 0.3 ppm) was “−” and the “Color Change within 24 hour incubation” value ([3]; Log4 spore strip, 168 hours exposure to DHP gas at about 0.3 ppm) was “−”. The “Color Change within 24 hour incubation” value [3, 16] was “−”, the “Time of Change” value [3, 16] was 15 h and the “Biological Change” value [3, 17] was “no turbidity”. For the same compound, the “Color Change within 24 hour incubation” value [3, 17] was “very dark orange”, the “Time of Change” value [3, 17] was 22 h and the “Biological Change” value [3, 18] was “no turbidity”. The “Time of Change” value [3, 18] was 14 h and 22 h, the “Biological Change” value [3, 19] was “no turbidity” and the “Color Change within 24 hour incubation” value [3, 19] was “darker orange”. For the same compound, the “Time of Change” value [3, 19] was 17 h.
